{
  "source": "paper PMC5902452",
  "about": "“In silico optimization of a guava antimicrobial peptide enables combinatorial exploration for peptide design” (Nature Communications, 2018)",
  "key": {"[1]": {"test_system": "P. aeruginosa H1001 (fliC::luxCDABE)", "type": "cell-based, Pseudomonas aeruginosa", "conditions": "SPOT-synthesized unpurified crude peptide (~70% purity); bioluminescent engineered P. aeruginosa; BM2 medium; 4 h, 37 °C; reduction of luminescence; 200 to 3 μg mL−1 tested", "method": "A peptide array composed of 20 peptides (15 guavanins, 4 Pg-AMP1 fragments, and magainin 2) was designed and synthesized by Kinexus Bioinformatics Corporation (Vancouver, BC). Peptides were produced in a standard mass of 80 μg by using cellulose support in SPOT technology. The crude synthetic peptides were obtained from cellulose membrane discs that had already been treated with ammonia gas to release the peptides from the membrane. Peptides were then dissolved overnight in distilled water and subsequently evaluated for their biological activities, as described below.\nThe antimicrobial activity of the synthesized peptides was evaluated against an engineered luminescent P. aeruginosa H1001 (fliC::luxCDABE) strain in 96-well microplates. Aqueous solutions of peptides released from the cellulose spots were diluted twofold in BM2 medium [62 mM potassium phosphate buffer pH 7; 2 mM MgSO4; 10 μM FeSO4; 0.4% (wt/vol) glucose] down the eight wells of a 96-well plate, achieving a final volume of 25 μL in each well. Subsequently, 50 μL of overnight culture of P. aeruginosa H1001 (fliC::luxCDABE) were subcultured in 5 mL of fresh LB media and grown until they reached an OD600 of 0.4. This growing bacteria culture was then diluted 4:100 (v/v) into fresh BM2 media and 25 μL of this diluted bacterial culture was transferred to the microplate wells containing 25 μL of peptide solution. The final peptide concentrations tested ranged from 200 to 3 μg mL^−1. The plates were incubated for 4 h at 37 °C with constant shaking at 50 rpm. Luminescence was measured on a Tecan […]luor Plus Microplate Reader (Tecan US, Morrisville, NC). The antimicrobial activity was evaluated by the ability of the peptides to reduce the luminescence of P. aeruginosa-lux strain compared to untreated cells. The AMP magainin 2 and the carbapenem meropenem were used as positive controls and distilled water was used as a negative control."}, "[2]": {"test_system": "E. coli ATCC 25922", "assay": "Membrane polarization assay with DiSC3(5)", "type": "cell-based, Escherichia coli", "conditions": "12.5 µM (twofold above the MIC), 20 min, 37 °C", "method": "When the cytoplasmic membrane is intact, the fluorescent probe DiSC3(5) accumulates into the cytoplasmic membrane and then aggregates, causing self-quenching of the fluorescence. In the presence of a membrane-depolarizing agent, DiSC3(5) is released into the medium, leading to an increase in fluorescence that can be monitored over time[59]. Briefly, exponentially growing bacteria were centrifuged (1000 × g, 10 min, 4 °C), washed with PBS, and resuspended in the same buffer to an A630 of 0.1; then 700 µL of bacteria were pre-incubated with 1 µM DiSC3(5) in the dark during 10 min at 37 °C, and then 100 µL of 1 mM KCl were added in order to equilibrate the cytoplasmic and external K^+ concentrations. […] Three independent experiments were performed and results correspond to a representative experiment with negative (PBS) and positive (melittin) controls."}, "[3]": {"test_system": "P. aeruginosa strain PAO1", "assay": "Scarification skin infection mouse model", "type": "in vivo, female CD-1 mice", "method": "P. aeruginosa strain PAO1 was grown to an optical density at 600 nm (OD600) of 1 in tryptic soy broth medium. Subsequently cells were washed twice with sterile PBS, and resuspended to a final concentration of 5 × 10^7 CFU in 50 μL. To generate skin infection, female CD-1 mice (6 weeks old) were anesthetized with isoflurane and had their backs shaved. A superficial linear skin abrasion was made with a needle in order to damage the stratum corneum and upper layer of the epidermis. Five minutes after wounding, an aliquot of 50 μL containing 5 × 10^7 CFU of bacteria in PBS was inoculated over each defined area containing the scratch with a pipette tip. One day after the infection, peptides were administered to the infected area. Animals were euthanized and the area of scarified skin was excised 2 and 4 days post-infection, homogenized using a bead beater for 20 min (25 Hz), and serially diluted for CFU quantification. Two independent experiments were performed with four mice per group in each case. Statistical significance was assessed using a two-way ANOVA. Animals were maintained in accordance with the Guide for the Care and Use of Laboratory Animals in an AAALAC-accredited facility. All procedures were approved by the MIT’s Institutional Animal Care and Use Committee (IACUC), protocol number 1016-064-19."}, "[4]": {"test_system": "Candida parapsilosis ATCC 22019", "type": "cell-based", "conditions": "ATCC 22019, 18 h", "description": "(§2) Lysogeny Broth (LB) was used for cultures of Acinetobacter baumannii ATCC 19606, Enterococcus faecalis ATCC 29212, Escherichia coli ATCC 25922, Klebsiella pneumoniae ATCC 13883, Pseudomonas aeruginosa ATCC 27853, and S. aureus ATCC 25923. Brain Heart Infusion (BHI) broth was used for cultures of Listeria ivanovii Li 4pVS2 and Streptococcus pyogenes ATCC 19615. Yeast peptone dextrose (YPD) medium was used for Candida species (C. albicans ATCC 90028 and C. parapsilosis ATCC 22019). MH (Mueller Hinton) broth was used for suspend centrifuged culture of bacteria and yeasts in logarithmic phase to an A630 of 0.01 (~10^6 cfu mL^−1), except for S. pyogenes, L. ivanovii, and E. faecalis that were suspended in their respective growth medium. […] A microplate reader (UVM 340, Asys Hitech) was used to monitor the antimicrobial susceptibility by measuring the change in A630. […] Each experiment was performed in triplicate with positive (0.7% formaldehyde) and negative (without peptide) inhibition controls."}, "[5]": {"test_system": "C. albicans clinical isolate", "assay": "Antibiofilm assay (planktonic growth and biofilm formation, crystal violet)", "type": "cell-based, Candida albicans", "method": "(§1) Overnight cultures of microorganisms [E. coli 0157, methicillin-resistant S. aureus (MRSA), K. pneumoniae 1825971, or C. albicans clinical isolate obtained from a blood culture maintained at LACEN (Laboratório Central de Saúde do Distrito Federal, a Brazilian reference laboratory for clinical isolates in Brasília, Brazil)] grown in LB broth (BD Difco) were diluted 1 in 100 in LB and Todd-Hewitt broth (BD Difco) or BM2 minimal medium [62 mM potassium phosphate buffer, pH 7.0, 7 mM (NH4)2SO4, 2 mM MgSO4, 10 μM FeSO4, 0.5% glucose], and 100 μL per well was added into 96-well round-bottom microplates. Absorbance at 600 nm was used to assess the planktonic cell growth. Non-adherent planktonic cells were removed from microtiter wells and washed twice with deionized water. Adherent cells were stained with 0.1% crystal violet for 20 min. The microplate wells were washed twice with deionized water, air dried, and solubilized with 110 μL of 70% ethanol. […] Biofilm formation was assessed by measuring the absorbance at 600 nm using a microplate reader (Bio-Tek Instruments, Inc., USA). The microdilution method for cationic peptides was used to determine the MIC for planktonic cells. Three biological replicates were performed for each experiment involving eight technical replicates."}, "[6]": {"test_system": "E. coli 0157", "assay": "Antibiofilm assay", "type": "cell-based, Escherichia coli", "method": "as §1"}, "[7]": {"test_system": "Acinetobacter baumannii ATCC 19606", "assay": "Antimicrobial activity, MIC by twofold serial dilution", "type": "cell-based", "conditions": "purified peptide; MH broth, 18 h, 37 °C, A630; average of three independent experiments in triplicate", "description": "as §2"}, "[8]": {"test_system": "Listeria ivanovii Li4pVS2", "conditions": "purified peptide; BHI broth, 18 h, 37 °C, A630; average of three independent experiments in triplicate", "description": "as §2"}, "[9]": {"test_system": "human erythrocytes", "assay": "Hemolytic assay", "conditions": "SPOT-synthesized crude peptides; human red blood cells in NaCl 0.85%, 1 h, 37 °C; hemoglobin release at 546 nm; highest concentration 200 μg mL−1; 100% of hemolysis was not observed", "protocol": "Fresh human venous blood was collected from volunteers in Vacutainer collection tubes containing sodium heparin as an anticoagulant (BD Biosciences, Franklin Lakes, NJ). The blood was centrifuged applying 151 × g force (1500 rpm) and the serum was removed and the blood cells were replaced and washed three times with the same volume of sterile NaCl 0.85% solution. Concentrated red blood cells were diluted tenfold in NaCl 0.85% solution and then exposed at twofold dilutions of peptides for 1 h at 37 °C, at identical concentrations used for antimicrobial assays, in the ratio of 1:1 (v/v), achieving a final volume of 100 μL. The assay was carried out in 96-well polypropylene microtiter plates. The positive control wells contained 1% of Triton X-100, representing 100% cell lysis, and negative control wells contained sterile saline. Hemoglobin release was monitored chromogenically at 546 nm using a microplate reader."}},
  "note": "Peptide text beside a SMILES is read from it.",
  "data": [
    {"smiles": "CC[C@H](C)[C@H](NC(=O)[C@H](CCCNC(=N)N)NC(=O)[C@H](Cc1ccc(O)cc1)NC(=O)CNC(=O)[C@H](Cc1ccc(O)cc1)NC(=O)[C@H](CCCNC(=N)N)NC(=O)[C@H](CC(C)C)NC(=O)[C@H](C)NC(=O)[C@H](CCC(N)=O)NC(=O)[C@H](CCC(=O)O)NC(=O)[C@@H](NC(=O)[C@H](CCC(N)=O)NC(=O)[C@H](CCCNC(=N)N)NC(=O)[C@H](CCSC)NC(=O)[C@H](Cc1ccc(O)cc1)NC(=O)[C@H](CCC(N)=O)NC(=O)[C@@H](N)CCCNC(=N)N)[C@@H](C)CC)C(=O)N[C@@H](CO)C(=O)N[C@@H](CCCNC(=N)N)C(=O)N[C@@H](CCCNC(=N)N)C(N)=O", "note": "[Guavanin 2] (H-RQYMRQIEQALRYGYRISRR-NH2)", "values": [
      {"measurement": "MIC", "setting": "[1]", "result": 6.25, "unit": "µg/mL"},
      {"measurement": "DiSC3(5) fluorescence change (membrane potential)", "setting": "[2]", "result": "decrease in DiSC3(5) fluorescence"},
      {"measurement": "reduction in bacterial counts", "setting": "[3]; 6.25 μg mL−1 (lowest dose) applied to infected area 24 h after infection, after 4 days", "result": 3, "unit": "log"},
      {"measurement": "effect on CFU counts / bacterial load (two-way ANOVA)", "setting": "[3]; doses 6.25, 25 and 100 µg mL−1, 4 days post-infection, two experiments, four mice per group", "result": "significantly reduced CFU counts"},
      {"measurement": "Active concentration (MIC)", "setting": "[4]", "result": "≥50", "unit": "µM"},
      {"measurement": "antibiofilm activity", "setting": "[5]", "result": "able to reduce C. albicans biofilms"},
      {"measurement": "concentration from which biofilm formation is inhibited (p<0.05)", "setting": "[5]; crystal violet, Student's t-test, three replicates", "result": 32, "unit": "µg/mL"},
      {"measurement": "concentration from which planktonic cells are affected (p<0.05)", "setting": "[5]; planktonic cells not eliminated, Student's t-test, three replicates", "result": 16, "unit": "µg/mL"},
      {"measurement": "antibiofilm activity", "setting": "[6]", "result": "only able to reduce C. albicans biofilms"},
      {"measurement": "Active concentration (MIC)", "setting": "[7]", "result": 6.25, "unit": "µM"},
      {"measurement": "Active concentration (MIC)", "setting": "[8]", "result": 50, "unit": "µM"},
      {"measurement": "Hemolysis", "setting": "[9]", "result": "> 200", "unit": "µg/mL"}
    ]}
  ]
}
